What is called melting point is the temperature, or range, at which the solid turns liquid.

Among the data in a melting point compilation (Tetko et al.; mined from patent text by program, amines drawn as free bases though some values may be those of a salt) are melting point values, retold here.

Each structure is given as a SMILES string.

On to `CS(=O)(=O)Nc1ccc(C(N)=O)cc1Sc1ccc(F)cc1F`, for which the melting point is 176 to 178 °C.
With `O=C(/C=C/c1ccc(O)c(O)c1)Nc1ccccc1C(=O)O` the figure was 204 to 206 °C; with `CCCn1nc2c(N)nc3ccccc3c2c1NCCC1CCN(C(=O)NC(C)C)CC1`, 168 to 170 °C.
With `CCCCCCCCCCOc1ccc(-c2nc3ccc(C(=O)O)cc3o2)cc1C12CC3CC(CC(C3)C1)C2` the figure was 200 to 201 °C; with `COc1ccc(S(=O)(=O)n2c(N)nc3c2c(=O)n(CC2CC2)c(=O)n3CC2CC2)cc1`, 177 to 178 °C.
With `CCOc1cc(-c2cc(C(F)(F)F)n3ncc(-c4ccncc4)c3n2)ccc1C(F)(F)F` the figure was 251 °C; with `O=C(O)C(=O)c1cnsn1`, 130 to 133 °C.
Compound `CNC(=O)[C@@H](C[C@H](O)[C@H](CC1CCCCC1)NC(=O)OC(C)(C)C)C(C)(C)O` returned a melting point of 174 to 175 °C.
Compound `C[C@H](CSC(=O)c1ccccc1)C(=O)N1CSC[C@H]1C(=O)OCOC(=O)C(C)(C)C` came in with a melting point of 69 to 69.5 °C.
With `CCCCCCCNC(=O)N(C)c1cccc(-c2ccc(CCC(=O)NO)cc2)c1` the figure was 100 to 101 °C.
Under `C1=CCC(Cc2ccc(-c3ccccc3)cc2)C1` stands 47 to 48 °C; under `CC(COc1ccc(CC2SC(=O)NC2=O)cc1)N1CC(Cc2ccccc2)OC1=O` (stereo unspecified), 60 to 70 °C.
With `CCCCCCCCCCCCCCCC1CCCC(c2ccc(O)cc2)(c2ccc(O)cc2)C1` (stereo unspecified) the figure was 104 °C; with `CC(CCC(=O)O)C1CCC2C3C(O)C(F)C4CC(O)CCC4(C)C3CCC12C` (stereo unspecified), 102 to 105 °C; with `CCc1cc(-c2cccnc2)nn1-c1ccc(NC(=O)c2cc3ccccc3n2C)cc1`, 178 to 179 °C.
As to `C=C(C)C(=O)Nc1ccc(C(=O)O)c(O)c1`, the melting point lay in the range of 220 to 222 °C.
In turn, `CS(=O)(=O)Nc1ccccc1C(=O)Nc1ccc(OCCN2CCCC2)cc1` came in with a melting point of 221 to 222 °C.
Under `NNC(=O)C(Cc1cccs1)NC(=O)[C@H](Cc1cccc2ccccc12)NC(=O)OCc1ccccc1` (mixture of isomers) stands 163 to 164 °C; under `Cc1sc(N)c(C(=O)c2ccc(Cl)s2)c1C`, 125 to 127 °C; under `COc1cc(C=C2CCc3c2nc2ccc(Cl)cn2c3=O)cc(OC)c1OC`, 222 to 223 °C.
With `O=C(O)c1ccc2c(=O)nc(-c3ccccn3)sc2c1`, the melting point was determined as 295 °C.
With `CCC(CC)Oc1nc(C)nc2c1[nH]c(=O)n2-c1c(C)cc(C)cc1C`, the melting point is 159 to 160 °C.
As to `COCCN(CCOC)C1CCN(c2ccc(NC(=O)c3cnn(-c4ccc(Cl)cc4)c3C)cc2C#N)CC1`, the melting point is 152 °C.
`CCC(C(=O)O)c1ccc(N[C@@H](CCC(N)=O)C(=O)O)cc1` (stereo partly specified) registered a melting point of 166 to 167 °C.
Under `Cc1cc(C(O)C[N+](=O)[O-])cc(C)c1Oc1ccc([N+](=O)[O-])c(Nc2ccc(C#N)cc2)n1` (stereo unspecified) stands 230 to 234 °C.
In turn, `CCCCN(CCCC)CCCOc1ccc(C(=O)c2c(-c3ccccc3)cc3cc(C(=O)OCC)ccn23)cc1` registered a melting point of 148 to 151 °C.
Under `CNC(=O)Cn1c(-c2ccc(Br)cc2)nc2cccnc21` stands 258 to 259 °C; under `CCCCc1nnc(SC)n1Cc1ccc(-c2ccccc2-c2nnn[nH]2)cc1`, 100 to 102 °C.
Consider `FC(F)C(F)(F)Oc1cccc(Nc2nccc(-c3cccs3)n2)c1`, for which the melting point is 115 to 116 °C.
The compound `CC(=O)NCC1CN(c2ccc(N3CCN(c4nc5cc(F)ccc5o4)CC3)c(F)c2)C(=O)O1` (stereo unspecified) came in with a melting point of 226 to 228 °C.
The compound `c1ccc(C2(c3ccccc3)CCSCC2)cc1` came in with a melting point of 134 °C.
On to `COc1ccc(SC(C(=O)O)c2ccccc2)c(Cl)c1Cl` (stereo unspecified), for which the melting point was in the range of 180 to 182 °C.
In turn, `CCC(O)(c1ccc(O)cc1)c1cccc(C(F)(F)F)c1` (stereo unspecified) gave a melting point of 102 to 103 °C.
Under `CCCCCCCCCCCCCc1cc(C(=O)OCCBr)c[nH]1` stands 67 to 69.5 °C; under `CCOC(=O)c1cc(=O)c2c(OCCn3c(=O)sc4ccc(Cl)cc43)cccc2o1`, 177 to 178 °C.
Under `CCC1Cc2ccc([N+](=O)[O-])cc2C=N1` (stereo unspecified) stands 61 to 62 °C.
With `O=C1CN=C(c2ccccc2Cl)c2cc(I)sc2N1` the figure was 229 to 231 °C; with `Cc1sc2cc(CC(=O)O)ccc2c1Br`, 150 to 152 °C; with `CC1(C)N=C(NC#N)N=C(NC(=O)c2nc(Cl)c(N)nc2N)N1`, 342 °C.
`O=C(O)CC=CC12CC(c3ccccc31)c1ccccc12`: the melting point lay within 166 to 167 °C.
Under `Cc1ccc(-c2ncc3c(n2)CCCC3)nc1Br` stands 125 to 128 °C; under `COC(=O)c1cc([N+](=O)[O-])c(-c2ccccc2)c([N+](=O)[O-])c1`, 148 °C; under `CCCC(=O)NCc1ccc(NC(=O)/C=C/c2cnn(C)c2-c2ccc(F)cc2)cc1`, 259 to 260 °C.
Under `O=C(c1ccccc1)c1cc(Cl)ccc1-n1cnnc1` stands 182 to 184 °C; under `CCOc1cc(S(=O)(=O)CC)ccc1-c1nc2ncccc2[nH]1`, 207 to 208 °C.
Under `COc1ccc2c(c1)CC(N(C)CCCNC(=O)Cc1cc(OC)c(OC)cc1[N+](=O)[O-])CC2` (stereo unspecified) stands 116 to 118 °C; under `CCOC(=O)COc1ccc(Cn2c(-c3ccc(C(F)(F)F)cc3)c(C)c3cc(OCc4ccccc4)ccc32)cc1`, 221 °C.
Regarding `OCC1CCCn2c(cc3ccccc32)C1` (stereo unspecified), the melting point fell in the range of 109 to 111 °C.
Under `Cc1nnc(-c2ccc(F)cc2F)n2nc(OCc3ncnn3C)c(-c3ccsc3)c12` stands 144 to 146 °C.
With `COc1cc(-c2nn(C)c(C(F)(F)F)c2Cl)c(F)cc1Cl` the figure was 70 to 71 °C.
With `CCOC(=O)c1nc(C)n(Cc2ccc([N+](=O)[O-])cc2)c1C(=O)OCC` the figure was 109 °C; with `CN(C(=N)Nc1ncccc1OCc1c(F)cccc1F)c1ccc(Cl)cc1`, 100 to 102 °C; with `CCOC(=O)/C=C/c1cnc(Cl)nc1`, 125 to 127 °C.
Compound `C[C@H](NS(=O)(=O)c1ccc(-c2c(C#N)c3ccc(C4CC4)cc3n2-c2ncccn2)nc1)C(F)(F)F` displayed a melting point of 181 to 184 °C.
With `COc1cc2c(cc1OC)CN(CCCCOc1ccc(NC(=O)c3cnc4ccccc4n3)cc1)CC2` the figure was 141 °C; with `Clc1ccccc1C=C(CBr)c1ccccc1`, 78 °C; with `COc1nc2ccccn2c(=O)c1-c1ccc(NC2CCN(C(=O)OC(C)(C)C)C2)cc1` (stereo unspecified), 102 to 104 °C.
`NC(=O)N1C(=O)C(C(=O)c2cccs2)c2ncc(Cl)cc21` (stereo unspecified) gave a melting point of more than 250 °C.
Turning to `O=C(O)Cn1cc(Cc2nc3c(F)c(F)cc(F)c3s2)c2cc(-c3ccccc3)ccc21`, the melting point was in the range of 156 to 159 °C.
In turn, `CC(C)c1nc(COC(=O)N[C@H](C(=O)N[C@@H](Cc2ccccc2)C[C@H](O)[C@H](Cc2ccccc2)NC(=O)OCc2cncs2)C(C)C)cs1` displayed a melting point of 142 to 145 °C.
`CC#CC(=O)Nc1ccc2ncnc(Nc3cccc(N(C)C)c3)c2c1` had a melting point of 252 to 254 °C.
Under `Cc1ccc(S(=O)(=O)N2CCNCCOCCOCCNCCN(S(=O)(=O)c3ccc(C)cc3)CC2)cc1` stands 121 °C; under `O=c1[nH]c(=O)n2c3c1cnn3C(c1cccnc1)=CC2`, 292 to 295 °C; under `CCCC(=O)c1ccccc1NC(C)=O`, 46.5 to 47 °C.
For the compound `CC#CCOc1ccc(S(=O)(=O)C(C(=O)NO)c2ccc(-c3cccs3)cc2)cc1` (stereo unspecified), the melting point is 175 °C.
As for `CCn1c(=O)c(CC(=O)O)cc2ccc(O)cc21`, the melting point lay in the range of 226 to 229 °C.
Compound `Cc1ccc(C(C)NC(=O)C2CC(=O)c3cc(F)ccc3O2)cc1` (single isomer, unassigned; (+)) registered a melting point of 157 °C.
With `O=C1C=C(O)CC(c2ccc3c(c2)OCO3)C1` (stereo unspecified) the figure was 181 °C.
In the case of `CCCCNC1NC(=O)N(c2ccc(O)cc2)C(=O)N1`, the melting point lay in the range of 263 to 265 °C.
Compound `ON=C(Nc1ccc(C(F)(F)F)cc1)C1=NN(c2ccc(Cl)cc2)C(c2ccc(F)cc2)C1` (stereo unspecified) came in with a melting point of 188 to 191 °C.
With `CC(C)(C)OC(=O)Cn1c(C(=O)O)cc2cc(N)ccc21` the figure was 128 °C; with `CCOC(=O)c1cc2cc(C=O)cc(C(C)CC)c2oc1=O` (stereo unspecified), 89 to 90 °C; with `Cc1cc(Cl)cc(C(=O)C(=O)O)c1NC(=O)c1cc(Br)nn1-c1ncccc1Cl`, 139 to 142 °C.
With `COC(=O)n1cc2c(c1)-c1ccc(Cl)cc1C(c1ccccc1Cl)=[N+]([O-])C2` the figure was 224 to 226 °C; with `CCCN1NC(c2ccccc2)C2=C1C(=Cc1ccccc1)CSC2` (stereo unspecified), 106 to 118 °C.
Compound `CN(C(=O)Cc1[nH]c(=O)c2ccc(Cl)cc2c1-c1ccccc1)c1cc(C(F)(F)F)cc(C(F)(F)F)c1` displayed a melting point of 181 to 182 °C.
`O=C1c2nccnc2C(O)N1c1ccc2ccc(Cl)nc2n1` (stereo unspecified) displayed a melting point of 270 °C.
Under `CC1(C)NC(=O)CN1C(=O)CNC(=O)OCc1ccccc1` stands 135 to 136 °C; under `CC1(C)Oc2ccc(S(C)(=O)=O)cc2[C@@H](N2CCCS2(=O)=O)[C@@H]1O` (relative stereo), 220 to 221 °C.
The compound `O=C(Oc1ccc(Cl)cc1)c1c2ccccc2nc2ccccc12` came in with a melting point of 170 °C.
For `CCCOc1nc2sccc2c(=N)n1CCC`, the melting point was in the range of 61 to 63 °C.
With `O=c1c2ccc3cc[nH]c3c2ccn1Cc1ccccc1` the figure was 211 to 213 °C; with `COc1ccc2c(c1)CCC1=C2CCC2(C)C(O)CCC12` (stereo unspecified), 110 to 112 °C; with `COC1=C(OC)C(=O)c2c(NC(C)=O)cccc2C1=O`, 162 to 163 °C.
With `Cc1oc(-c2ccccc2)nc1COc1ccc(Cn2cc(CCC(=O)O)cn2)cc1` the figure was 124 to 125 °C; with `CCCCCCCCCCCCc1cc2cc(C(=O)OCC)ccc2[nH]1`, 77 to 79 °C.
